What was measured:
[1] = test system: respiratory syncytial virus (RSV); parameters: method as in PMID 24882250; conditions: read-out: anti-RSV IC50; cited from earlier work
[2] = test system: respiratory syncytial virus (RSV); test: Anti-RSV activity assay (RT-qPCR); type: cell-based; conditions: human respiratory syncytial virus, HEp-2 cells, mean ± SEM, read-out: Inhibition rate (%) of RSV replication
Excerpt: Remdesivir was selected and evaluated as a positive control.

[3] = test system: K-562 (human myeloid leukemia cell); test: CCK-8 anti-proliferation assay, K-562; type: cell-based; conditions: 48 h, mean ± SEM; for inhibition at 20 µM: K562, at 20 µM; for Inhibition Rate (%): at 20 µM
Protocol: (§1) One concentration was set for each sample during preliminary screening and three multiple holes were set for each concentration. Eight concentration gradients were set for each sample for IC50 determination and three multiple holes were set for each concentration. […] The absorbance was measured at 450 nm with an enzyme labeling instrument and the original data and results were recorded. […] Doxorubicin was used as a positive control. All the cancer cell lines were obtained from Qingdao AC biotechnology Co., LTD, Qingdao, China.

[4] = test system: MKN-45 (human gastric cancer cell); test: CCK-8 anti-proliferation assay, MKN-45; type: cell-based; conditions: 48 h, mean ± SEM, read-out: Inhibition Rate (%)
Protocol: as §1

[5] = test system: HCT 116 (human colorectal cancer cell); test: CCK-8 anti-proliferation assay, HCT 116; type: cell-based; conditions: 48 h, mean ± SEM, read-out: Inhibition Rate (%)
Protocol: as §1

[6] = test system: HeLa (human cervical cancer cell); test: CCK-8 anti-proliferation assay, HeLa; type: cell-based; conditions: 48 h, mean ± SEM, read-out: Inhibition Rate (%)
Protocol: as §1

[7] = test system: 786-O (human renal cancer cell); test: CCK-8 anti-proliferation assay, 786-O; type: cell-based; conditions: 48 h, mean ± SEM, read-out: Inhibition Rate (%); for inhibition at 20 µM: 786-0, at 20 µM
Protocol: as §1

[8] = test system: TE-1 (human esophageal cancer cell); test: CCK-8 anti-proliferation assay, TE-1; type: cell-based; conditions: 48 h, mean ± SEM, read-out: Inhibition Rate (%)
Protocol: as §1

[9] = test system: 5637 (HTB-9) (human bladder cancer cell); test: CCK-8 anti-proliferation assay, 5637 (HTB-9); type: cell-based; conditions: for IC50: CCK-8, 48 h, read-out: IC50 against 5637 (HTB-9) cells
Protocol: as §1

[10] = test system: GBC-SD (human gallbladder carcinoma cell); test: CCK-8 anti-proliferation assay, GBC-SD; type: cell-based; conditions: 48 h, mean ± SEM, read-out: Inhibition Rate (%)
Protocol: as §1

[11] = test system: L-02 (human hepatocyte cell); test: CCK-8 anti-proliferation assay, L-02; type: cell-based; conditions: L-02 normal liver cells, 48 h, mean ± SEM, read-out: Inhibition Rate (%)
Protocol: as §1

[12] = test system: MCF7 (human breast cancer cell); test: CCK-8 anti-proliferation assay, MCF7; type: cell-based; conditions: 48 h, mean ± SEM, read-out: Inhibition Rate (%)
Protocol: as §1

[13] = test system: HepG2 (human liver carcinoma cell); test: CCK-8 anti-proliferation assay, HepG2; type: cell-based; conditions: for IC50: CCK-8, 48 h, read-out: IC50 against HepG2 cells
Protocol: as §1

[14] = test system: SF126 (human glioblastoma cell); test: CCK-8 anti-proliferation assay, SF126; type: cell-based; conditions: 48 h, mean ± SEM, read-out: Inhibition Rate (%); for inhibition at 20 µM: SF-126, at 20 µM
Protocol: as §1

[15] = test system: DU145 (human prostate carcinoma cell); test: CCK-8 anti-proliferation assay, DU145; type: cell-based; conditions: 48 h, mean ± SEM, read-out: Inhibition Rate (%); for inhibition at 20 µM: DU-145, at 20 µM
Protocol: as §1

[16] = test system: CAL-62 (human thyroid anaplastic carcinoma cell); test: CCK-8 anti-proliferation assay, CAL-62; type: cell-based; conditions: 48 h, mean ± SEM, read-out: Inhibition Rate (%)
Protocol: as §1

[17] = test system: PATU8988T (human pancreatic cancer cell); test: CCK-8 anti-proliferation assay, PATU8988T; type: cell-based; conditions: PaTu 8988t, 48 h, mean ± SEM, read-out: Inhibition Rate (%)
Protocol: as §1

[18] = test system: HOS (human osteosarcoma cell); test: CCK-8 anti-proliferation assay, HOS; type: cell-based; conditions: 48 h, mean ± SEM, read-out: Inhibition Rate (%)
Protocol: as §1

[19] = test system: A-375 (human melanoma cell); test: CCK-8 anti-proliferation assay, A-375; type: cell-based; conditions: 48 h, mean ± SEM, read-out: Inhibition Rate (%)
Protocol: as §1

[20] = test system: A-673 (Ewing sarcoma); test: CCK-8 anti-proliferation assay, A-673; type: cell-based; conditions: Homo sapiens, 48 h, mean ± SEM, read-out: Inhibition Rate (%); for inhibition at 20 µM: A673, at 20 µM
Protocol: as §1

[21] = test system: 293T (human embryonic kidney cell); test: CCK-8 anti-proliferation assay, 293T; type: cell-based; conditions: HEK-293T, 48 h, mean ± SEM, read-out: Inhibition Rate (%)
Protocol: as §1

[22] = test system: A549 (human lung adenocarcinoma cell); test: CCK-8 anti-proliferation assay, A549; type: cell-based; conditions: A549, 48 h, mean ± SEM, read-out: Inhibition Rate (%)
Protocol: as §1

[23] = Homo sapiens, read-out: Inhibition Rate (%)
[24] = 5637 (HTB-9), 48 h, mean ± SEM, read-out: Inhibition Rate (%)
[25] = 48 h, mean ± SEM, read-out: Inhibition Rate (%)

SMILES | IC50 [1] [µM] | inhibition at 10 µM [2] [%] | inhibition at 20 µM [3, 23] [%] | Inhibition Rate (%) [3] | inhibition at 20 µM [4] [%] | inhibition at 20 µM [5] [%] | inhibition at 20 µM [6] [%] | inhibition at 20 µM [7] [%] | inhibition at 20 µM [8] [%] | inhibition at 20 µM [9, 24] [%] | inhibition at 20 µM [10] [%] | inhibition at 20 µM [11] [%] | inhibition at 20 µM [12] [%] | inhibition at 20 µM [13, 25] [%] | inhibition at 20 µM [14] [%] | inhibition at 20 µM [15] [%] | inhibition at 20 µM [16] [%] | inhibition at 20 µM [17] [%] | inhibition at 20 µM [18] [%] | inhibition at 20 µM [19] [%] | other results
CC(=O)OC[C@H](C)[C@H](C)/C=C/[C@@H](C)[C@H]1CC[C@H]2[C@@H]3CC(=O)[C@@]4(O)C[C@@H](O)CC[C@]4(C)[C@H]3CC[C@]12C [compound 3] | 0.19 | – | – | – | – | – | – | – | – | – | – | – | – | – | – | – | – | – | – | – | –
CCC(CC)COC(=O)[C@H](C)N[P@](=O)(OC[C@H]1O[C@@](C#N)(c2ccc3c(N)ncnn23)[C@H](O)[C@@H]1O)Oc1ccccc1 [Remdesivir, reference compound] | – | 91.8 ± 0.5 | – | – | – | – | – | – | – | – | – | – | – | – | – | – | – | – | – | – | –
CC(=O)OC[C@H](C)CCC[C@@H](C)[C@H]1CC[C@H]2[C@@H]3C[C@@H](O)[C@@]4(O)C[C@@H](O)CC[C@]4(C)[C@H]3CC[C@]12C [compound 13, (2R,6R)-2-Methyl-6-((3S,5R,6R,8S,9S,10R,13R,14S,17R)-3,5,6-Trihydroxy-10,13-Dimethylhexadecahydro-1H-Cyclopenta[a]Phenanthren-17-yl) Heptyl Acetate] | – | 13.6 ± 2.1 | 7.8 ± 2.3 | did not exhibit any anti-proliferative activities | 52.7 ± 2.4 | 19.3 ± 1.2 | -2.3 ± 1.7 | 20.5 ± 1.3 | 13.5 ± 2.6 | 52.2 ± 4.5 | 6 ± 2.4 | 6.3 ± 3.2 | 19 ± 1.1 | 58 ± 1.2 | 4.7 ± 1.3 | -0.4 ± 3.9 | 7.5 ± 2.7 | 53.6 ± 1.7 | 52.6 ± 1.5 | 54.8 ± 1.7 | inhibition at 20 µM [20]: 66.3 ± 3.2%; inhibition at 20 µM [21]: 37.3 ± 2.7%; melting point: 201 to 202 °C
C[C@@H](CO)CCC[C@@H](C)[C@H]1CC[C@H]2[C@@H]3CC=C4C[C@@H](O)CC[C@]4(C)[C@H]3CC[C@]12C [compound 11, (3S,8S,9S,10R,13R,14S,17R)-17-((2R,6R)-7-Hydroxy-6-Methylheptan-2-yl)-10,13-Dimethyl-2,3,4,7,8,9,10,11,12,13,14,15,16,17-Tetradecahydro-1H-Cyclopenta[a]Phenanthren-3-ol] | – | 22.2 ± 3.9 | 13.1 ± 1.8 | did not exhibit any anti-proliferative activities | 53.8 ± 1.6 | 19.8 ± 1.4 | 14.9 ± 2.2 | 65.9 ± 2.4 | 27.7 ± 0.6 | 80.5 ± 2.5 | 10.4 ± 3.3 | 2.8 ± 2.1 | 14.1 ± 0.5 | 64.2 ± 2.5 | 11.7 ± 2.9 | 18.4 ± 3.7 | 12.5 ± 3.9 | 63.3 ± 4.2 | 9.3 ± 4.3 | 60.8 ± 1.4 | inhibition at 20 µM [22]: ≤ 50%; IC50 [9]: 3 µM; IC50 [13]: 5.6 µM; inhibition at 20 µM [20]: 26.5 ± 2.1%; inhibition at 20 µM [21]: -18.2 ± 1.3%
CC(=O)OC[C@@H](C)C/C=C/[C@@H](C)[C@H]1CC[C@H]2[C@@H]3CC(=O)[C@@]4(O)C[C@@H](O)CC[C@]4(C)[C@H]3CC[C@]12C [compound 1] | 0.78 | – | – | – | – | – | – | – | – | – | – | – | – | – | – | – | – | – | – | – | –
COc1cccc2c1C(=O)c1c(O)c3c(c(O)c1C2=O)C[C@@](O)(C(=O)CO)C[C@@H]3O[C@H]1C[C@H](N)[C@H](O)[C@H](C)O1 [Doxorubicin, reference compound] | – | – | – | – | – | – | – | – | – | – | – | – | – | – | – | – | – | – | – | – | inhibition at 10 µM ([3]; Homo sapiens, K562, at 10 µM, read-out: Inhibition Rate (%)): 67.5 ± 1%; inhibition at 10 µM ([22]; at 10 µM): 75.9 ± 2.5%; inhibition at 10 µM ([4]; at 10 µM): 89.8 ± 0.5%; inhibition at 10 µM ([5]; at 10 µM): 88.9 ± 1.5%; inhibition at 10 µM ([6]; at 10 µM): 97.7 ± 0.4%; inhibition at 10 µM ([7]; 786-0, at 10 µM): 86.3 ± 1.9%; inhibition at 10 µM ([8]; at 10 µM): 83.3 ± 1.1%; inhibition at 10 µM ([9]; 5637 (HTB-9), at 10 µM, 48 h, mean ± SEM, read-out: Inhibition Rate (%)): 99.3 ± 0.3%; inhibition at 10 µM ([10]; at 10 µM): 76.7 ± 1.5%; inhibition at 10 µM ([11]; at 10 µM): 99.2 ± 0.1%; inhibition at 10 µM ([12]; at 10 µM): 55.9 ± 1.7%; inhibition at 10 µM ([13]; at 10 µM, 48 h, mean ± SEM, read-out: Inhibition Rate (%)): 95.9 ± 1.9%; inhibition at 10 µM ([14]; SF-126, at 10 µM): 97.1 ± 1%; inhibition at 10 µM ([15]; DU-145, at 10 µM): 76.4 ± 1.6%; inhibition at 10 µM ([16]; at 10 µM): 92.6 ± 1.3%; inhibition at 10 µM ([17]; at 10 µM): 98.4 ± 0.6%; inhibition at 10 µM ([18]; at 10 µM): 98.4 ± 0.9%; inhibition at 10 µM ([19]; at 10 µM): 95.3 ± 1%; inhibition at 10 µM ([20]; A673, at 10 µM): 98.7 ± 0.6%; inhibition at 10 µM ([21]; at 10 µM): 88.2 ± 1.2%
CC(=O)OCC(C)/C=C/[C@@H](C)[C@H]1CC[C@H]2[C@@H]3CC(=O)[C@@]4(O)C[C@@H](O)CC[C@]4(C)[C@H]3CC[C@]12C (some centres unmarked) [compound 4] | 3.23 | – | – | – | – | – | – | – | – | – | – | – | – | – | – | – | – | – | – | – | –
CC(=O)OC[C@@H](C)[C@H](C)/C=C/[C@@H](C)[C@H]1CC[C@H]2[C@@H]3CC(=O)[C@@]4(O)C[C@@H](O)CC[C@]4(C)[C@H]3CC[C@]12C [compound 2] | 0.19 | – | – | – | – | – | – | – | – | – | – | – | – | – | – | – | – | – | – | – | –
C[C@@H](CO)CCC[C@@H](C)[C@H]1[C@@H](O)C[C@H]2[C@@H]3CC=C4C[C@@H](O)CC[C@]4(C)[C@H]3CC[C@]12C [compound 8, (3S,8S,9S,10R,13S,14S,16S,17R)-17-((2R,6R)-7-Hydroxy-6-Methylheptan-2-yl)-10,13-Dimethyl-2,3,4,7,8,9,10,11,12,13,14,15,16,17-Tetradecahydro-1H-Cyclopenta[a]Phenanthrene-3,16-diol] | – | 24.9 ± 2.6 | 7.2 ± 2.2 | did not exhibit any anti-proliferative activities | 54.4 ± 1.9 | 61.7 ± 2.1 | 49.7 ± 3.6 | 69 ± 1.8 | 34 ± 3.8 | 75.1 ± 0.8 | 26.8 ± 1.3 | 8.1 ± 1.3 | 31.2 ± 1.4 | 76.8 ± 1.3 | 30.7 ± 2.4 | 26 ± 1.7 | 28 ± 4 | 62.7 ± 2 | 2.7 ± 4 | 72.3 ± 0.6 | inhibition at 20 µM [22]: 53 ± 2.7%; IC50 [9]: 5.8 µM; IC50 [13]: 12 µM; inhibition at 20 µM [20]: 51.9 ± 2.8%; inhibition at 20 µM [21]: 42.4 ± 2.1%

Reference: PMC10053440, “Semi-Synthesis and Biological Evaluation of 25(R)-26-Acetoxy-3β,5α-Dihydroxycholest-6-One” (Marine Drugs, 2023)
